Reference: patent publication US20100240093A1, “Isolated Staphylococcus Pseudolugdunensis” (priority 2006, published 2010)

How the values were obtained:
isolate B292 = assay: Disc diffusion antimicrobial susceptibility testing; assay type: cell-based, Staphylococcus pseudolugdunensis; details: isolate 13292; note: key: R—resistant; S—susceptible
Protocol: (§1) In vitro antimicrobial susceptibility testing for amoxicillin-clavulanate, cefazolin, clindamycin, erythromycin, gentamicin, levofloxacin, minocycline, penicillin, rifampin, trimethoprim/sulfamethoxazole (SXT) and vancomycin was determined by a disc diffusion method in accordance with Clinical and Laboratory Standards Institute guidelines (CLSI Performance standards for antimicrobial disk susceptibility tests; Approved standard, 9th ed. (2006) Clinical and Laboratory Standards Institute, Wayne, Pa.).

isolate B060 = assay: as above; assay type: cell-based, Staphylococcus pseudolugdunensis; note: key: R—resistant; S—susceptible
Protocol: as §1

isolate B739 = assay: as above; assay type: cell-based, Staphylococcus pseudolugdunensis; details: isolate 8739; note: key: R—resistant; S—susceptible
Protocol: as §1

isolate B334 = assay: as above; assay type: cell-based, Staphylococcus pseudolugdunensis; note: key: R—resistant; S—susceptible
Protocol: as §1

isolate B354 = assay: as above; assay type: cell-based, Staphylococcus pseudolugdunensis; note: key: R—resistant; S—susceptible
Protocol: as §1

isolate B287 = assay: as above; assay type: cell-based, Staphylococcus pseudolugdunensis; details: isolate 8287; note: key: R—resistant; S—susceptible
Protocol: as §1

isolate B333 = assay: as above; assay type: cell-based, Staphylococcus pseudolugdunensis; note: key: R—resistant; S—susceptible
Protocol: as §1

isolate B277 = assay: as above; assay type: cell-based, Staphylococcus pseudolugdunensis; details: isolate 8277; note: key: R—resistant; S—susceptible
Protocol: as §1

isolate B230 = assay: as above; assay type: cell-based, Staphylococcus pseudolugdunensis; note: key: R—resistant; S—susceptible
Protocol: as §1

isolate B837 = assay: as above; assay type: cell-based, Staphylococcus pseudolugdunensis; note: key: R—resistant; S—susceptible
Protocol: as §1

isolate B715 = assay: as above; assay type: cell-based, Staphylococcus pseudolugdunensis; details: isolate 13715; note: key: R—resistant; S—susceptible
Protocol: as §1

isolate B006 = assay: as above; assay type: cell-based, Staphylococcus pseudolugdunensis; note: key: R—resistant; S—susceptible
Protocol: as §1

12 isolates = assay: Disc diffusion antimicrobial susceptibility testing, all isolates; assay type: cell-based, Staphylococcus pseudolugdunensis
Protocol: as §1

isolates B230 and B333 = assay: Clinical case of intravenous line-associated infection; assay type: in vivo, human; details: patient with intravenous line-associated infection, line removed
Protocol: The relatedness of these 12 ODC/PYR-positive CoNS was further analyzed by pulsed field gel electrophoresis (PFGE). All isolates were unrelated, except for two isolates (B230 and B333) which were recovered from the same patient over a 16-day interval. […] Vancomycin was administered and the line removed.
Medical records of the 11 patients from whom these isolates were recovered were reviewed and the demographic and clinical information are listed in Table 3. Two isolates (B230 and B333), which were recovered from the same patient over a 16-day interval, were considered to be the pathogen that caused an intravenous line-associated infection. The remaining 10 isolates were considered to be contaminants. Antibiotics, including vancomycin, were administered in 6 (54.5%) cases, including one case in which the two isolates were considered pathogens and in 5 of 10 cases in which the isolates were considered contaminants (Table 3).

Row | Molecule | Antimicrobial susceptibility (isolate B292) | Antimicrobial susceptibility (isolate B060) | Antimicrobial susceptibility (isolate B739) | Antimicrobial susceptibility (isolate B334) | Antimicrobial susceptibility (isolate B354) | Antimicrobial susceptibility (isolate B287) | Antimicrobial susceptibility (isolate B333) | Antimicrobial susceptibility (isolate B277) | Antimicrobial susceptibility (isolate B230) | Antimicrobial susceptibility (isolate B837) | Antimicrobial susceptibility (isolate B715) | Antimicrobial susceptibility (isolate B006) | Susceptibility of all 12 isolates (12 isolates) | Patient outcome (isolates B230 and B333)
1 | Trimethoprim/sulfamethoxazole | S | R | S | R | S | R | S | S | R | S | R | S | – | –
2 | CN[C@H](CC(C)C)C(=O)N[C@H]1C(=O)N[C@@H](CC(N)=O)C(=O)N[C@H]2C(=O)N[C@H]3C(=O)N[C@H](C(=O)N[C@H](C(=O)O)c4cc(O)cc(O)c4-c4cc3ccc4O)[C@H](O)c3ccc(c(Cl)c3)Oc3cc2cc(c3O[C@@H]2O[C@H](CO)[C@@H](O)[C@H](O)[C@H]2O[C@H]2C[C@](C)(N)[C@H](O)[C@H](C)O2)Oc2ccc(cc2Cl)[C@H]1O [Vancomycin] | S | S | S | S | S | S | S | S | S | S | S | S | susceptible | recovered fully
3 | CC[C@H]1OC(=O)[C@H](C)[C@@H](O[C@H]2C[C@@](C)(OC)[C@@H](O)[C@H](C)O2)[C@H](C)[C@@H](O[C@@H]2O[C@H](C)C[C@H](N(C)C)[C@H]2O)[C@](C)(O)C[C@@H](C)C(=O)[C@H](C)[C@@H](O)[C@]1(C)O [Erythromycin] | S | S | R | R | S | S | R | S | S | R | S | R | – | –
4 | Cc1nnc(SCC2=C(C(=O)O)N3C(=O)[C@@H](NC(=O)Cn4cnnn4)[C@H]3SC2)s1 [Cefazolin] | S | S | R | R | S | S | S | S | S | R | R | R | – | –
5 | CCC[C@@H]1C[C@@H](C(=O)N[C@@H]([C@H]2O[C@H](SC)[C@H](O)[C@@H](O)[C@H]2O)[C@H](C)Cl)N(C)C1 [Clindamycin] | S | S | R | R | S | S | R | S | S | R | S | S | – | –
6 | Penicillin | R | R | R | R | S | R | R | S | R | R | R | R | – | –
7 | CN(C)c1ccc(O)c2c1C[C@H]1C[C@H]3[C@H](N(C)C)C(O)=C(C(N)=O)C(=O)[C@@]3(O)C(O)=C1C2=O [Minocycline] | S | S | S | S | S | S | S | S | S | S | S | S | – | –
8 | Amoxicillin-clavulanate | S | S | R | R | S | S | S | S | S | R | R | R | – | –
9 | COc1cccc(OC)c1C(=O)N[C@@H]1C(=O)N2[C@@H]1SC(C)(C)[C@@H]2C(=O)O [Methicillin] | S | S | R | R | S | S | S | S | S | R | R | R | – | –
10 | C[C@H]1COc2c(N3CCN(C)CC3)c(F)cc3c(=O)c(C(=O)O)cn1c23 [Levofloxacin] | S | S | S | R | S | R | S | S | R | S | R | S | – | –
11 | Gentamicin | S | S | S | S | S | S | S | S | S | S | S | S | susceptible | –
12 | CO[C@H]1/C=C/O[C@@]2(C)Oc3c(C)c(O)c4c(O)c(c(/C=N/N5CCN(C)CC5)c(O)c4c3C2=O)NC(=O)/C(C)=C\C=C\[C@H](C)[C@H](O)[C@@H](C)[C@@H](O)[C@@H](C)[C@H](OC(C)=O)[C@@H]1C [Rifampin] | S | S | S | S | S | S | S | S | S | S | S | S | susceptible | –
